Data on 19 molecules can be found in US11814367B2, “Inhibitors of glycogen synthase 1 (GYS1) and methods of use thereof” (Maze Therapeutics, Inc., priority 2021, dated 2023).

Chain of hGYS1 enzyme (recombinant hGYS1/GN1 protein) (P13807 whole entry): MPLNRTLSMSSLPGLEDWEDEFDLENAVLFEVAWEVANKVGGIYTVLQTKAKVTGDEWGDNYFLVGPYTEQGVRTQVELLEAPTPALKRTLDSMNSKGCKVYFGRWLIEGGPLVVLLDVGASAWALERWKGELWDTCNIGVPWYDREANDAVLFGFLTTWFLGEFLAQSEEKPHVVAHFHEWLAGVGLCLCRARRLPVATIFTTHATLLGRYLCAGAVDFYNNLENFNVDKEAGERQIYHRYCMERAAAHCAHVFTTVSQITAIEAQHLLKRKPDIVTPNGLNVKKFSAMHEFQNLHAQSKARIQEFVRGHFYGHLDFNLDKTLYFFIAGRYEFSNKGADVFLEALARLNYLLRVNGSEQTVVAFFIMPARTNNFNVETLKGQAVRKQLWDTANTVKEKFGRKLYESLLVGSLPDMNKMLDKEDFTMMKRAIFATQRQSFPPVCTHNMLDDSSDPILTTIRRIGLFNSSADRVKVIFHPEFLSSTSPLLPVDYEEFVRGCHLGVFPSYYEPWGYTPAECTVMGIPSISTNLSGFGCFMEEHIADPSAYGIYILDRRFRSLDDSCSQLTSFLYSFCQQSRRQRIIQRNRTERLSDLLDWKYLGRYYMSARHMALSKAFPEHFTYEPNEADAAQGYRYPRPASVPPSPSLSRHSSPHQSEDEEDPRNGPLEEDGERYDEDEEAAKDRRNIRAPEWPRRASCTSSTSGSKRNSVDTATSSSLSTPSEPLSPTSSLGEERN
Chain of hGYS1 enzyme (recombinant hGYS1/GN1 protein) (P46976 whole entry partner): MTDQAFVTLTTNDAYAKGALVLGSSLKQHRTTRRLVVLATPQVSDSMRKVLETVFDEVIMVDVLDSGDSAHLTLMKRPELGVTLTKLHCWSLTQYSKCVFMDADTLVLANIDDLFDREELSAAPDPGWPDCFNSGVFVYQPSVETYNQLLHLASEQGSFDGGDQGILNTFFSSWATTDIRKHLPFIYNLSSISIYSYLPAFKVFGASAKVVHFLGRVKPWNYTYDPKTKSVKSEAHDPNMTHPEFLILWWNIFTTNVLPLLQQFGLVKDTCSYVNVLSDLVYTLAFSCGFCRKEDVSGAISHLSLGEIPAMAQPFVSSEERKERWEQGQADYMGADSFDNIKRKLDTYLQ

The test concerns the target hGYS1 enzyme (recombinant hGYS1/GN1 protein) (Homo sapiens (Human), UniProt P13807). Kind of test: GYS1 coupled enzyme assay (PK/LDH). The format is biochemical. The settings on record: hGYS1/GN1 50 nM, UDP-Glucose 0.8 mM, G6P 1 mM; geometric mean of at least 2 runs. From the text: The GYS1 coupled enzyme assay is a kinetic biochemical assay that indirectly quantifies the rate of glycogen synthesis by coupling the conversion of GYS1 substrate UDP-glucose into UDP with downstream enzymatic reactions. UDP is released from UDP-glucose as glucose monomers are linked into the growing glycogen strand by GYS1. The coupled assay then proceeds with pyruvate kinase utilizing UDP and phospho(enol)pyruvate (PEP) to form pyruvate. Lactate dehydrogenase then converts pyruvate and NADH into lactate and NAD+. Oxidation of NADH to NAD+ can be measured continuously with a plate reader by quantifying the decrease in NADH absorbance at 340 nm over time.
Compounds that inhibit the hGYS1 enzyme and, subsequently, the downstream conversion of NADH to NAD+, were tested using assay ready plates (black, clear bottom 384 well plates) in a final DMSO reaction volume of 2.5% DMSO. The Assay Buffer contained 50 mM Tris pH 7.5, 2 mM MgCl2, and 100 mM KCl. Fresh stocks of BSA at a final concentration of 0.02% and TCEP at 1 mM were added before splitting buffer into hGYS1 buffer and substrate buffer. To the hGYS1 buffer, rabbit liver glycogen was added at a final concentration of 0.2% glycogen. Glucose-6-Phosphate was added at 1 mM, recombinant hGYS1/GN1 protein was added at 50 nM to the substrate buffer, phosphoenolpyruvate (PEP) was added at 2 mM, UDP-Glucose was added at 0.8 mM, NADH) was added at 0.6 mM, and Pyruvate Kinase/Lactate Dehydrogenase was added at 20 units/mL. The reaction was initiated by mixing hGYS1 buffer and substrate buffer at a 1:1 ratio. Both buffers were plated using a liquid dispensing device with hGYS1 buffer plated first followed by the substrate buffer. Plates were spun briefly to eliminate air bubbles and are immediately read in continuous mode at an absorbance of 340 nm, for 10 time points in one-minute increments, for a total of 10 minutes. The slope from these 10 time points was normalized to the positive and negative control wells. The duplicate % inhibition values are then averaged and fit to a Hill equation for dose response according to the Levenberg-Marquardt algorithm with the Hill equation maximum set to 100 and the minimum set to 0.
Unless otherwise specified, IC50 values are reported as the geometric mean of at least 2 assay runs on separate days. Each run represents the average of a technical replicate, where each compound was assayed twice in the same plate. […] A superscript “#” symbol in Table 2 indicates results from a single assay run.
For the molecule `CC(Cn1cncn1)C(=O)N1C[C@H](F)C[C@H]1C(=O)N[C@@H](c1ccccc1)c1ccc(C(C)C)cc1` (stereo partly drawn) [Compound 120, (2S,4R)-4-fluoro-1-[2-methyl-3-(1H-1,2,4-triazol-1-yl)propanoyl]-N-[(S)-phenyl[4-(propan-2-yl)phenyl]methyl]pyrrolidine-2-carboxamide], the IC50 (as a rule, the midpoint of a concentration-inhibition curve) worked out at 343 nM.

For the molecule `O=C(N[C@@H](c1ccccc1)c1ccc(C2CC2)c(F)n1)[C@@H]1[C@H](O)[C@@H](F)CN1C(=O)Cn1nnnc1C(F)F` [Compound 764, (2S,3S,4S)-N-[(S)-(5-cyclopropyl-6-fluoropyridin-2-yl)(phenyl)methyl]-1-{2-[5-(difluoromethyl)-1H-1,2,3,4-tetrazol-1-yl]acetyl}-4-fluoro-3-hydroxypyrrolidine-2-carboxamide], the IC50 came to 155 nM.

Turning to `CC(=O)N1CCCC(C)(C(=O)N2C[C@H](F)C[C@H]2C(=O)N[C@@H](c2ccccc2)c2ccc(C(C)C)cc2)C1` (stereo partly drawn) [Compound 168, (2S,4R)-1-(1-acetyl-3-methylpiperidine-3-carbonyl)-4-fluoro-N-[(S)-phenyl[4-(propan-2-yl)phenyl]methyl]pyrrolidine-2-carboxamide], the IC50 came out at 439 nM.

For the molecule `CC(=O)N1[C@H](C(=O)N[C@@H](c2ccccc2)c2ccc(C(C)C)cc2)C[C@@H]2C[C@@H]21` [Compound 199, (1S,3S,5S)-2-acetyl-N-[(S)-phenyl[4-(propan-2-yl)phenyl]methyl]-2-azabicyclo[3.1.0]hexane-3-carboxamide], the IC50 stood at 1190 nM.

Turning to `O=C(N[C@@H](c1ccccc1)c1ccc(C2CC2)c(F)c1)[C@@H]1C[C@@H](F)CN1C(=O)Cc1ccon1` [Compound 438, (2S,4R)-N-[(S)-(4-cyclopropyl-3-fluorophenyl)(phenyl)methyl]-4-fluoro-1-[2-(1,2-oxazol-3-yl)acetyl]pyrrolidine-2-carboxamide], the 50% inhibitory concentration (IC50) amounted to 303 nM.

On to `CC(C)c1ccc([C@@H](NC(=O)[C@@H]2C[C@@H](F)CN2C(=O)c2ccc3c(c2)NC(=O)CC3)c2ccccc2)cc1` [Compound 97, (2S,4R)-4-fluoro-1-(2-oxo-1,2,3,4-tetrahydroquinoline-7-carbonyl)-N-[(S)-phenyl[4-(propan-2-yl)phenyl]methyl]pyrrolidine-2-carboxamide], for which the IC50 is 712 nM.

For `CC(=O)N1CCC2(CCCC2C(=O)N2C[C@H](F)C[C@H]2C(=O)N[C@@H](c2ccccc2)c2ccc(C(C)C)cc2)C1` (stereo partly drawn) [Compound 182, (2S,4R)-1-{2-acetyl-2-azaspiro[4.4]nonane-6-carbonyl}-4-fluoro-N-[(S)-phenyl[4-(propan-2-yl)phenyl]methyl]pyrrolidine-2-carboxamide], the IC50 worked out at 748 nM.

In the case of `O=C(N[C@@H](c1ccccc1)c1ccc(C2CC2)c(F)n1)[C@@H]1[C@@H](O)[C@H](F)CN1C(=O)Cn1nnnc1C(F)F` [Compound 763, (2S,3R,4R)-N-[(S)-(5-cyclopropyl-6-fluoropyridin-2-yl)(phenyl)methyl]-1-{2-[5-(difluoromethyl)-1H-1,2,3,4-tetrazol-1-yl]acetyl}-4-fluoro-3-hydroxypyrrolidine-2-carboxamide], the IC50 worked out at 466 nM.

Take `CC(C)c1ccc(C(NC(=O)[C@@H]2C[C@@H](F)CN2C(=O)Cc2cnn[nH]2)c2cncc(F)c2)cc1F` (single isomer, unassigned) [Compound 617, (2S,4R)-4-fluoro-N-[(R) or (S)-[3-fluoro-4-(propan-2-yl)phenyl](5-fluoropyridin-3-yl)methyl]-1-[2-(1H-1,2,3-triazol-5-yl)acetyl]pyrrolidine-2-carboxamide]: the IC50 was 1640 nM.

Consider `CC(C)c1ccc([C@@H](NC(=O)[C@@H]2C[C@@H](F)CN2C(=O)c2cc(-n3ccnc3)ccn2)c2ccccc2)cc1` [Compound 707, (2S,4R)-4-fluoro-1-[4-(1H-imidazol-1-yl)pyridine-2-carbonyl]-N-[(S)-phenyl[4-(propan-2-yl)phenyl]methyl]pyrrol-idine-2-carboxamide], for which the IC50 was determined as 1990 nM.

As for `CC(C)c1ccc([C@@H](NC(=O)[C@@H]2C[C@@H](F)CN2C(=O)Cn2nncc2N2CCC2)c2ccccc2)nc1F` [Compound 808, (2S,4R)-1-{2-[5-(azetidin-1-yl)-1H-1,2,3-triazol-1-yl]acetyl}-4-fluoro-N-[(S)-[6-fluoro-5-(propan-2-yl)pyridin-2-yl](phenyl)methyl] pyrrolidine-2-carboxamide], the IC50 came to 12 nM.

In the case of `CCn1nccc1C(=O)N1C[C@H](F)C[C@H]1C(=O)N[C@@H](c1ccccc1)c1ccc(C(C)C)cc1` [Compound 53, (2S,4R)-1-(1-ethyl-1H-pyrazole-5-carbonyl)-4-fluoro-N-[(S)-phenyl[4-(propan-2-yl)phenyl]methyl]pyrrolidine-2-carboxamide], the IC50 came out at 789 nM.

`CC(C)c1ccc([C@@H](NC(=O)[C@@H]2C[C@@H](F)CN2C(=O)CCc2ncc[nH]2)c2ccccc2)cc1` [Compound 47, (2S,4R)-4-fluoro-1-[3-(1H-imidazol-2-yl)propanoyl]-N-[(S)-phenyl[4-(propan-2-yl)phenyl]methyl]pyrrolidine-2-carboxamide]: the IC50 came to 138 nM.

`CC(=O)N1C2CCC1CC(C(=O)N1C[C@H](F)C[C@H]1C(=O)N[C@@H](c1ccccc1)c1ccc(C(C)C)cc1)C2` (stereo partly drawn) [Compound 175, (2S,4R)-1-{8-acetyl-8-azabicyclo[3.2.1]octane-3-carbonyl}-4-fluoro-N-[(S)-phenyl[4-(propan-2-yl)phenyl]methyl]pyrrolidine-2-carboxamide]: the IC50 is 582 nM.

Take `CC(C)c1ccc([C@@H](NC(=O)[C@@H]2C[C@@H](F)CN2C(=O)C(C)(C)O)c2ccccc2)cc1F` [Compound 327, (2S,4R)-4-fluoro-N-[(S)-[3-fluoro-4-(propan-2-yl)phenyl](phenyl)methyl]-1-(2-hydroxy-2-methylpropanoyl)pyrrolidine-2-carboxamide]: the IC50 was determined as 121 nM.

Turning to `CC(C)c1ccc([C@@H](NC(=O)[C@@H]2C[C@@H](F)CN2C(=O)Cn2cc(Cl)cn2)c2ccccc2)cc1` [Compound 20, (2S,4R)-1-[2-(4-chloro-1H-pyrazol-1-yl)acetyl]-4-fluoro-N-[(S)-phenyl[4-(propan-2-yl)phenyl]methyl]pyrrolidine-2-carboxamide], the IC50 was 46 nM.

For `CC(=O)N1C[C@@H]2[C@@H](C(=O)N3C[C@H](F)C[C@H]3C(=O)N[C@@H](c3ccccc3)c3ccc(C(C)C)cc3)CO[C@@H]2C1` [Compound 165, (2S,4R)-1-[(3R,3aS,6aS)-5-acetyl-hexahydro-2H-furo[2,3-c]pyrrole-3-carbonyl]-4-fluoro-N-[(S)-phenyl[4-(propan-2-yl)phenyl]methyl]pyrrolidine-2-carboxamide], the IC50 amounted to 361 nM.

For `CC(C)c1ccc([C@@H](NC(=O)[C@@H]2C[C@@H](F)CN2C(=O)Cc2cc[nH]n2)c2ccccc2)cc1` (stereo in doubt) [Compound 225, (2RS,4R)-4-fluoro-N-[(S)-phenyl[4-(propan-2-yl)phenyl]methyl]-1-[2-(1H-pyrazol-3-yl)acetyl]pyrrolidine-2-carboxamide], the IC50 was found to be 44 nM.

With `CC(=O)N1CCN(CC(=O)N2C[C@H](F)C[C@H]2C(=O)N[C@@H](c2ccccc2)c2ccc(C(C)C)cc2)CC1` [Compound 235, (2S,4R)-1-[2-(4-acetylpiperazin-1-yl)acetyl]-4-fluoro-N-[(S)-phenyl[4-(propan-2-yl)phenyl]methyl]pyrrolidine-2-carboxamide], the IC50 was 342 nM.
